Patent US20230114241A1, “METHODS OF TREATING EPILEPSY USING THE SAME” (Trevena, Inc., priority 2019, published 2023)

target: human sphingosine-1-phosphate receptor 1 (S1P1) (Homo sapiens, UniProt P21453); assay: Inhibition of cAMP production (HTRF cAMP HiRange), S1P1 CHO-K1 cells; type: cell-based; conditions: inhibition of cAMP production, S1P1; read-out: hS1P1 CAMP pEC50 (converted)
Procedure, shortened: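 Intracellular cAMP changes read by TR-FRET (HTRF HiRange, 1 h room temperature) after 30 min compound exposure at 37 °C. Cells: overnight-plated CHO-K1 stably expressing tagged human S1P1 with EA-β-arrestin2. Responses normalized to fingolimod.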

Chain of human sphingosine-1-phosphate receptor 1 (S1P1) (P21453 whole entry): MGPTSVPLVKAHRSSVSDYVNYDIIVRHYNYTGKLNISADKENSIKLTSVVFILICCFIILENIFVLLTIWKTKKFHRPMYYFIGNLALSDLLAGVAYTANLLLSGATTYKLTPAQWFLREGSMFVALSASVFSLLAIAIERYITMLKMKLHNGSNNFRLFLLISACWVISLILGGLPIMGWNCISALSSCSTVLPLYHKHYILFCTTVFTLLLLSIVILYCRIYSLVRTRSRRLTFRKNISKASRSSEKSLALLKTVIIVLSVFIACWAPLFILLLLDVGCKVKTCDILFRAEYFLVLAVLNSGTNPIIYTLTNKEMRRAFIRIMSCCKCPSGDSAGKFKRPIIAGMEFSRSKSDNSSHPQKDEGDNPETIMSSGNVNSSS

Structure (SMILES)	EC50 [µM]
CC(C)Nc1ccc(-c2nc(-c3ccc4sc(N)nc4c3)no2)cc1C#N [Compound 441, 5-(3-(2-aminobenzo[d]thiazol-5-yl)-1,2,4-oxadiazol-5-yl)-2-(isopropylamino) benzonitrile]	< 0.316
Cc1cccc2oc(-c3ccc4c(c3)nnn4C(C)C)nc12 [Compound 418, 2-(1-isopropyl-1H-benzo[d][1,2,3]triazol-5-yl)-4-methyl-benzo[d]oxazole]	< 0.316
CC(C)n1nnc2cc(-c3nc4c(Cl)cccc4o3)ccc21 [Compound 427, 4-chloro-2-(1-isopropyl-1H-benzo[d][1,2,3]triazol-5-yl)benzo[d]oxazole]	> 0.316
Cc1cn(C)nc1-c1noc(-c2ccc3c(c2)nnn3C(C)C)n1 [Compound 519, 5-[3-(1,4-dimethyl-1H-pyrazol-3-yl)-1,2,4-oxadiazol-5-yl]-1-(propan-2-yl)-1H-1,2,3-benzotriazole]	< 0.316
CC(C)n1nnc2cc(-c3nc(-c4nccn4C)no3)ccc21 [Compound 569, 5-[3-(1-methyl-1H-imidazol-2-yl)-1,2,4-oxadiazol-5-yl]-1-(propan-2-y1)-1H-1,2,3-benzotriazole]	> 0.316
COc1cnccc1-c1nc(-c2ccc3c(c2)nnn3C(C)C)no1 [Compound 606, 3-(1-isopropyl-1H-benzo[d][1,2,3]triazol-5-yl)-5-(3-methoxy-pyridin-4-yl)-1,2,4-oxadiazole]	< 0.316
CC(C)n1nnc2cc(-c3nc(-c4cccs4)co3)ccc21 [Compound 459, 1-(propan-2-yl)-5-[4-(thiophen-2-yl)-1,3-oxazol-2-yl]-1H-1,2,3-benzotriazole]	> 0.316
Cc1nccnc1-c1nc(-c2ccc3c(c2)nnn3C(C)(C)CO)no1 [Compound 641, 2-methyl-2-(5-(5-(3-methyl-pyrazin-2-yl)-1,2,4-oxadiazol-3-yl)-1H-benzo[d][1,2,3]triazol-1-yl)propan-1-ol]	> 0.316
CC(C)n1nnc2cc(-c3noc(-c4ccccc4N)n3)ccc21 [Compound 576, 2-{3-[1-(propan-2-yl)-1H-1,2,3-benzotriazol-5-yl]-1,2,4-oxadiazol-5-yl}aniline]	< 0.316
COc1cccc2nc(-c3ccc4c(c3)nnn4C(C)C)oc12 [Compound 515, 2-(1-isopropyl-1H-benzo[d][1,2,3]triazol-5-yl)-7-methoxy-benzo[d]oxazole]	< 0.316

same assay, conditions: inhibition of cAMP production; potency; read-out: hS1P1 CAMP pEC50 (converted)

Structure (SMILES)	EC50 [µM]
CCC1(CC)CC(=O)c2cc(-c3nc(-c4ccncc4C(F)(F)F)no3)ccc2O1 [Compound 313, 2,2-diethyl-6-(3-(3-(trifluoromethyl)pyridin-4-yl)-1,2,4-oxadiazol-5-yl)chroman-4-one]	< 0.316
Cc1cnc(-c2noc(-c3ccc4c(c3)nnn4C3CCOCC3)n2)cn1 [Compound 6, 5-[3-(5-methylpyrazin-2-yl)-1,2,4-oxadiazol-5-yl]-1-(oxan-4-yl)-1H-1,2,3-benzotriazole]	> 0.316
C=C(F)CNc1ccc(-c2nc(-c3ccc4c(c3)CCC(=O)N4)no2)cc1C#N [Compound 346, 2-[(2-fluoroprop-2-en-1-yl)amino]-5-[3-(2-oxo-1,2,3,4-tetrahydro-quinolin-6-yl)-1,2,4-oxadiazol-5-yl]benzonilrile]	< 0.316
CC(C)n1nnc2cc(-c3nc(-c4ccncc4)no3)ccc21 [Compound 244, 1-(propan-2-yl)-5-[3-(pyridin-4-yl)-1,2,4-oxadiazol-5-yl]-1H-1,2,3-benzotriazole]	< 0.316
Cc1cc(C)cc(Cc2noc(-c3ccc4c(c3)nnn4C(C)C)n2)c1 [Compound 126, 5-{3-[(3,5-dimethyl-phenyl)methyl]-1,2,4-oxadiazol-5-yl}-1-(propan-2-yl)-1H-1,2,3-benzotriazole]	> 0.316
FC(F)(F)Oc1ccccc1-c1nc(-c2ccc3c(c2)nnn3C2CCCC2)no1 [Compound 84, 3-(1-cyclopentyl-1H-benzo[d][1,2,3]triazol-5-yl)-5-(2-(trifluoro-methoxy)phenyl)-1,2,4-oxadiazole]	> 0.316
CCCCC1(CCCC)CC(=O)c2cc(-c3nc(-c4cccnc4)no3)ccc2O1 [Compound 188, 2,2-dibutyl-6-[3-(pyridin-3-yl)-1,2,4-oxadiazol-5-yl]-3,4-dihydro-2H-1-benzo-pyran-4-one]	> 0.316
Cc1ccccc1C(C)c1noc(-c2ccc3c(c2)nnn3C(C)C)n1 (stereo not drawn) [Compound 172, 5-{3-[1-(2-methyl-phenyl)ethyl]-1,2,4-oxadiazol-5-yl}-1-(propan-2-yl)-1H-1,2,3-benzotriazole]	> 0.316
CC(C)n1ccc2cc(-c3nc(-c4cccc5c4OCO5)no3)ccc21 [Compound 326, 3-(benzo[d][1,3]dioxol-4-yl)-5-(1-isopropyl-1H-indol-5-yl)-1,2,4-oxadiazole]	> 0.316
Cc1ccncc1-c1noc(-c2ccc3c(c2)nnn3CC(C)(C)O)n1 [Compound 206, 2-methyl-1-{5-[3-(4-methylpyridin-3-yl)-1,2,4-oxadiazol-5-yl]-1H-1,2,3-benzotriazol-1-yl}propan-2-ol]	> 0.316
Cc1ccncc1-c1noc(-c2ccc3nnn(C(C)C)c3c2)n1 [Compound 264, 6-[3-(4-methylpyridin-3-yl)-1,2,4-oxadiazol-5-yl]-1-(propan-2-yl)-1H-1,2,3-benzotriazole]	> 0.316
Cc1ccccc1-c1noc(-c2ccc3c(c2)nnn3CC(C)(C)O)n1 [Compound 139, 2-methyl-1-{5-[3-(2-methylphenyl)-1,2,4-oxadiazol-5-yl]-1H-1,2,3-benzotriazol-1-yl}propan-2-ol]	< 0.316
CCC1(CC)CC(=O)c2cc(-c3nnc(-c4cccnc4)s3)ccc2O1 [Compound 104, 2,2-diethyl-6-(5-(pyridin-3-yl)-1,3,4-thiadiazol-2-yl)chroman-4-one]	< 0.316
CC(C)n1ncc2cc(-c3nc(-c4ccccc4Cl)no3)ccc21 [Compound 330, 3-(2-chlorophenyl)-5-(1-isopropyl-1H-indazol-5-yl)-1,2,4-oxadiazole]	< 0.316
O=C1CC2(CCOCC2)Oc2ccc(-c3nc(-c4cccnc4)no3)cc21 [Compound 214, 6-[3-(pyridin-3-yl)-1,2,4-oxadiazol-5-yl]-3,4-dihydrospiro[1-benzopyran-2,4′-oxane]-4-one]	> 0.316
Cc1ccccc1-c1cnc(-c2ccc3c(c2)nnn3C(C)C)s1 [Compound 216, 2-(1-isopropyl-benzotriazol-5-yl)-5-(o-tolyl)thiazole]	> 0.316
Cc1ccccc1Cc1noc(-c2ccc3c(c2)nnn3C(C)C)n1 [Compound 202, 5-{3-[(2-methyl-phenyl)methyl]-1,2,4-oxadiazol-5-yl}-1-(propan-2-yl)-1H-1,2,3-benzotriazole]	> 0.316
COc1ccccc1-c1nnc(-c2ccc3[nH]c(=O)oc3c2)o1 [Compound 349, 6-[5-(2-methoxyphenyl)-1,3,4-oxadiazol-2-yl]-2,3-dihydro-1,3-benzoxazol-2-one]	< 0.316
COc1ccccc1-c1nc(-c2ccc3c(c2)nnn3C(C)C)ns1 [Compound 138, 5-[5-(2-methoxyphenyl)-1,2,4-thiadiazol-3-yl]-1-(propan-2-yl)-1H-1,2,3-benzotriazole]	< 0.316
COc1ccccc1-c1noc(-c2ccc3c(c2)nnn3C2CC2)n1 [Compound 173, 1-cyclopropyl-5-[3-(2-methoxyphenyl)-1,2,4-oxadiazol-5-yl]-1H-1,2,3-benzotriazole]	< 0.316
